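Following 48 hours of exposure in 96-well plates, responses at five concentrations were used to interpolate endpoints linearly. GI50: concentration for 50% inhibition of growth.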 Active and inactive are the calls of the source. Rule as the data show it: active = GI50 up to about 1.1 µM and inactive = higher.
Tests used:
Experiment in all cases: NCI anticancer screen, dose series, 48 h
[1] = test system: U-251
[2] = test system: NCI-H522
[3] = test system: Hs-578T
[4] = test system: RPMI-8226
[5] = test system: OVCAR-8
[6] = test system: SF-268
[7] = test system: KM12
[8] = test system: LOX IMVI
[9] = test system: SF-295
[10] = test system: DU-145
[11] = test system: HCC 2998
[12] = test system: NCI/ADR-RES
[13] = test system: KM-20L2
[14] = test system: SNB-75
[15] = test system: MDA-MB-231
[16] = test system: UACC-62
[17] = test system: RXF 393
[18] = test system: HOP-92
[19] = test system: HCT-15
[20] = test system: CCRF-CEM

Structure (SMILES) | GI50 [1] | GI50 [2] | GI50 [3] | GI50 [4] | GI50 [5] | GI50 [6] | GI50 [7] | GI50 [8] | GI50 [9] | GI50 [10] | GI50 [11] | GI50 [12] | GI50 [13] | GI50 [14] | GI50 [15] | GI50 [16] | GI50 [17] | GI50 [18] | GI50 [19] [µM] | GI50 [20]
CCCC(=O)OC1C(C(O)CO)OC2OC(C)(C)OC21 (stereo unspecified) | > 100 µM (inactive) | > 100 µM (inactive) | > 100 µM (inactive) | > 100 µM (inactive) | > 100 µM (inactive) | > 100 µM (inactive) | > 100 µM (inactive) | > 100 µM (inactive) | > 100 µM (inactive) | > 100 µM (inactive) | > 100 µM (inactive) | > 100 µM (inactive) | > 100 µM (inactive) | > 100 µM (inactive) | > 100 µM (inactive) | > 100 µM (inactive) | > 100 µM (inactive) | > 100 µM (inactive) | > 100 | 
CC1CC(c2cccc3c2OCO3)=Nc2ccccc2S1 (stereo unspecified) |  | > 100 µM (inactive) |  | > 100 µM (inactive) | > 100 µM (inactive) | > 100 µM (inactive) | > 100 µM (inactive) | > 100 µM (inactive) | > 100 µM (inactive) |  | > 100 µM (inactive) |  | > 100 µM (inactive) | > 100 µM (inactive) |  | > 100 µM (inactive) | > 100 µM (inactive) | > 100 µM (inactive) | > 100 | > 100 µM (inactive)
CCCCN(CCCC)CC(C(C)=O)C(c1ccccc1)c1c(O)c2ccccc2oc1=O (stereo unspecified) | > 100 µM (inactive) | > 100 µM (inactive) |  | > 100 µM (inactive) | > 100 µM (inactive) | > 100 µM (inactive) | > 100 µM (inactive) | > 100 µM (inactive) | > 100 µM (inactive) |  | > 100 µM (inactive) |  | > 100 µM (inactive) | 19.3 µM (inactive) |  | > 100 µM (inactive) | 84.7 µM (inactive) | 28 µM (inactive) | > 100 | > 100 µM (inactive)
O=C(CC(CC(=O)Oc1c(Br)cc(Br)cc1C(=O)O)C(=O)Oc1c(Br)cc(Br)cc1C(=O)O)Oc1c(Br)cc(Br)cc1C(=O)O | 46.6 µM (inactive) | 22.2 µM (inactive) |  | 33.7 µM (inactive) | 19.3 µM (inactive) | 6.12 µM (inactive) | 50.7 µM (inactive) | 30.8 µM (inactive) | 71.3 µM (inactive) |  | 42.3 µM (inactive) |  | 56.6 µM (inactive) | 26.1 µM (inactive) |  | 49.9 µM (inactive) |  | 16.5 µM (inactive) | 43.8 | 41.6 µM (inactive)
Cc1ccc(S(=O)(=O)SCc2ccccc2CSS(=O)(=O)c2ccc(C)cc2)cc1 | 28.6 µM (inactive) | 10.9 µM (inactive) |  | 17.5 µM (inactive) | 24.5 µM (inactive) | 36.6 µM (inactive) | 59.7 µM (inactive) | 15.8 µM (inactive) | 79.8 µM (inactive) |  | 75.2 µM (inactive) |  | 78.3 µM (inactive) | 57.7 µM (inactive) |  | 15.8 µM (inactive) | 15.7 µM (inactive) | 21.7 µM (inactive) | 19.5 | 
CC(=O)c1cccc(N2COC(C)(C)c3nc4ccccc4n3C2)c1 | > 100 µM (inactive) | > 100 µM (inactive) |  | > 100 µM (inactive) | > 100 µM (inactive) | > 100 µM (inactive) | > 100 µM (inactive) | > 100 µM (inactive) | > 100 µM (inactive) |  | > 100 µM (inactive) |  | > 100 µM (inactive) | > 100 µM (inactive) |  | > 100 µM (inactive) | > 100 µM (inactive) | > 100 µM (inactive) | > 100 | > 100 µM (inactive)
O=C(N/C(=C\c1ccccc1O)c1nc2ccccc2[nH]1)c1ccccc1 | > 100 µM (inactive) | 45.2 µM (inactive) |  | > 100 µM (inactive) | 66.1 µM (inactive) | 37.3 µM (inactive) | > 100 µM (inactive) | 42.1 µM (inactive) |  |  | > 100 µM (inactive) |  | > 100 µM (inactive) | 12.8 µM (inactive) |  | > 100 µM (inactive) | > 100 µM (inactive) | 23.8 µM (inactive) | > 100 | > 100 µM (inactive)
COc1ccc2c(c1)C=C(C(C)(C)C)NS2(=O)=O | > 100 µM (inactive) | > 100 µM (inactive) |  |  | > 100 µM (inactive) | > 100 µM (inactive) | > 100 µM (inactive) | > 100 µM (inactive) | > 100 µM (inactive) |  | > 100 µM (inactive) |  | > 100 µM (inactive) | > 100 µM (inactive) |  | > 100 µM (inactive) | > 100 µM (inactive) | > 100 µM (inactive) | > 100 | > 100 µM (inactive)
CCOC(=O)C1=NC(c2ccccc2)(c2ccccc2)OC1=C(Cl)Cl | 74.6 µM (inactive) | 23.1 µM (inactive) |  | 19.1 µM (inactive) | > 100 µM (inactive) | > 100 µM (inactive) | 94 µM (inactive) | 46 µM (inactive) | > 100 µM (inactive) |  | 18.5 µM (inactive) |  | 49.3 µM (inactive) | > 100 µM (inactive) |  | 99.8 µM (inactive) | 0.879 µM (active) | 35.4 µM (inactive) | 70.1 | 33.6 µM (inactive)
Nc1ncnc2c1nnn2C1C=C(CO)C(O)C1O (stereo unspecified) | > 100 µM (inactive) | > 100 µM (inactive) |  | 20.3 µM (inactive) | 39.4 µM (inactive) | 42.7 µM (inactive) | 36.6 µM (inactive) | 38.6 µM (inactive) | > 100 µM (inactive) |  | 22.5 µM (inactive) |  | 50.5 µM (inactive) | 30.9 µM (inactive) |  | > 100 µM (inactive) | > 77.1 µM (inactive) | 14.3 µM (inactive) | 26.6 | 50.7 µM (inactive)
N#CC(C#N)C(c1ccccc1)c1ccccc1 | > 100 µM (inactive) | > 100 µM (inactive) |  | > 100 µM (inactive) | > 100 µM (inactive) | > 100 µM (inactive) | > 100 µM (inactive) | > 100 µM (inactive) | > 100 µM (inactive) |  | > 100 µM (inactive) |  | > 100 µM (inactive) |  |  | > 100 µM (inactive) | > 100 µM (inactive) | > 100 µM (inactive) | > 100 | > 100 µM (inactive)
O=C1CCC(=O)c2sccc2N1 | > 100 µM (inactive) | > 100 µM (inactive) |  | > 100 µM (inactive) | > 100 µM (inactive) | > 100 µM (inactive) | > 100 µM (inactive) | > 100 µM (inactive) | > 100 µM (inactive) |  | > 100 µM (inactive) |  | > 100 µM (inactive) | > 100 µM (inactive) |  |  | > 100 µM (inactive) | > 100 µM (inactive) | > 100 | > 100 µM (inactive)
CCOc1ccc(NC(=O)C2=C(C)NC(C)=C(C(=O)Nc3ccc(OCC)cc3)C2c2ccccc2)cc1 | > 100 µM (inactive) | 38.3 µM (inactive) |  | 49.9 µM (inactive) | > 100 µM (inactive) | 98.6 µM (inactive) | 41.7 µM (inactive) | > 100 µM (inactive) | > 100 µM (inactive) |  | > 100 µM (inactive) |  | 67 µM (inactive) | 95.7 µM (inactive) |  |  | > 100 µM (inactive) | > 100 µM (inactive) |  | 31.3 µM (inactive)
N#CCc1ccc(C(C#N)/C(CCCC(=O)Nc2cccc([N+](=O)[O-])c2)=N/NC(N)=S)cc1 (stereo unspecified) | > 100 µM (inactive) | 27.9 µM (inactive) |  | > 100 µM (inactive) |  | > 100 µM (inactive) | > 100 µM (inactive) | 63.1 µM (inactive) | > 100 µM (inactive) |  | > 100 µM (inactive) |  | > 100 µM (inactive) | > 100 µM (inactive) |  | 44.1 µM (inactive) | > 100 µM (inactive) | 83.8 µM (inactive) | > 100 | 51.6 µM (inactive)
O=C1C(Br)=C[C@H]2C3C=CC(Br)(C3=O)[C@@H]12 (stereo partly specified) | 13.8 µM (inactive) | 5.85 µM (inactive) |  | 3.05 µM (inactive) | 12.5 µM (inactive) | 12.9 µM (inactive) | 11.9 µM (inactive) |  | 18 µM (inactive) |  | 13.3 µM (inactive) |  | 4.84 µM (inactive) | 22.5 µM (inactive) |  | 3.82 µM (inactive) | 13.8 µM (inactive) | 16.2 µM (inactive) | 12.2 | 2.59 µM (inactive)
CCCn1c(SCC)c2cc3cc4ccccc4cc3cc2c1-c1nc(F)nc(F)n1 |  | > 100 µM (inactive) |  | > 100 µM (inactive) | > 100 µM (inactive) | > 100 µM (inactive) | > 100 µM (inactive) | > 100 µM (inactive) | > 100 µM (inactive) |  | > 100 µM (inactive) |  | > 100 µM (inactive) | > 100 µM (inactive) |  |  | > 100 µM (inactive) | > 100 µM (inactive) | > 100 | > 100 µM (inactive)
C=C(CN(C)C)C(=O)c1ccccc1 | 18.7 µM (inactive) | 1.02 µM (active) | 26.2 µM (inactive) | 4.13 µM (inactive) | 19.5 µM (inactive) | 24.5 µM (inactive) | 19.9 µM (inactive) | 7.93 µM (inactive) | 31.4 µM (inactive) | 16.6 µM (inactive) | 18 µM (inactive) | 32 µM (inactive) | 19.1 µM (inactive) | 17 µM (inactive) | 15.1 µM (inactive) | 14.8 µM (inactive) | 2.33 µM (inactive) | 2.06 µM (inactive) | 10.2 | 0.631 µM (active)
